Assay results: US20230295197A1, “STAT5 and STAT6 Degraders and Uses Thereof” (REGENTS OF THE UNIVERSITY OF MICHICAN, priority 2022, published 2023)
Like-named read-outs stand apart in the source and are kept apart here.

Molecular target: T1, STAT6 (Homo sapiens, UniProt P42226)
T1 construct: endogenous in cells; host or cells: MOLM-16, KU-812, SKNO1, MB231, L1236
T1 sequence (P42226 1-847): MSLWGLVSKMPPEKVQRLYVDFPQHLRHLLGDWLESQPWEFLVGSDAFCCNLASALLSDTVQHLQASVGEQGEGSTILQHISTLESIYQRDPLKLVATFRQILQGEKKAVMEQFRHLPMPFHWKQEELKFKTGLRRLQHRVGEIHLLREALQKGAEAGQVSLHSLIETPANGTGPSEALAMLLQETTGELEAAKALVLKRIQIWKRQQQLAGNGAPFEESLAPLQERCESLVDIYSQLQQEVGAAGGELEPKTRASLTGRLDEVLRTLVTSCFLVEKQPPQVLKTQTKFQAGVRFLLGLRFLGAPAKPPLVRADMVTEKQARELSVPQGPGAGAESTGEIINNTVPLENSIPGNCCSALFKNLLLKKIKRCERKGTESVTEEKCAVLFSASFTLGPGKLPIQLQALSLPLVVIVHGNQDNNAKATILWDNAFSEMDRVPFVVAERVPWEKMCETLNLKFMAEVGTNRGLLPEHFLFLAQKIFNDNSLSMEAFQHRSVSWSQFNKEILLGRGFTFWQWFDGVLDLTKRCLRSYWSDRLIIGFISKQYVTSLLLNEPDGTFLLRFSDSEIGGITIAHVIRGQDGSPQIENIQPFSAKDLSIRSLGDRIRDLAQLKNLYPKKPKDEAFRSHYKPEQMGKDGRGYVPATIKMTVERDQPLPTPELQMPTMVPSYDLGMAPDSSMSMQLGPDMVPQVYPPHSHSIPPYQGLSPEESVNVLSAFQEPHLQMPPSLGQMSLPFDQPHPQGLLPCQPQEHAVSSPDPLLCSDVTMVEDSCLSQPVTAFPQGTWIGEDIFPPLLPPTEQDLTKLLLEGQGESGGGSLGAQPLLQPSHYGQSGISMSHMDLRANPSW
Assay: Immunoblotting (Western blot) analysis of STAT6 degradation efficiency of degraders in treated cells
Type: cell-based
Summary of the method: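 About 1 million cells per point, grown in 10% FBS medium at 37 °C/5% CO2, were exposed to compound at the indicated concentrations and times, then lysed in RIPA buffer with protease and phosphatase inhibitors. Equal protein (20-40 μg) was resolved by SDS-PAGE, blotted to PVDF, and probed with anti-STAT5, anti-STAT6 and anti-GAPDH antibodies.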

[1] = MOLM-16 cells, class symbols, read-out: DC50 S6 MOLM-16
[2] = L1236 cells, read-out: DC50 S6 L1236

Row | Structure (SMILES) | DC50 [1] [µM] | DC50 (MOLM-16 cells, numeric bound, read-out: DC50 S6 MOLM-16) [µM] | DC50 [2] [µM]
1 | CC(C)(C)[C@H](NC(=O)c1cc2cc(C(F)(F)P(=O)(O)O)ccc2s1)C(=O)N1CCN(C(=O)CC(=O)NCCCCCCCCC#Cc2ccc3c(c2)C(=O)N(C2CCC(=O)NC2=O)C3=O)C[C@H]1C(=O)N1CCC[C@H](c2ccccc2)C1 (stereo partly drawn) [Compound 532, ((2-(((2S)-1-((2S)-4-(3-((10-(2-(2,6-dioxopiperidin-3-yl)-1,3-dioxoisoindolin-5-yl)dec-9-yn-1-yl)amino)-3-oxopropanoyl)-2-((R)-3-phenylpiperidine-1-carbonyl)piperazin-1-yl)-3,3-dimethyl-1-oxobutan-2-yl)carbamoyl)benzo[b]thiophen-5-yl)difluoromethyl)phosphonic acid] | > 10 |  | 
2 | CC(C)(C)[C@H](NC(=O)c1cc2cc(C(F)(F)P(=O)(O)O)ccc2s1)C(=O)N1Cc2cc(OCC(=O)NCC#Cc3ccc4c(c3)C(=O)N(C3CCC(=O)NC3=O)C4=O)ccc2C[C@H]1C(=O)N1CCC[C@H](c2ccccc2)C1 (stereo partly drawn) [Compound 550, ((2-(((2S)-1-((3S)-7-(2-((3-(2-(2,6-dioxopiperidin-3-yl)-1,3-dioxoisoindolin-5-yl)prop-2-yn-1-yl)amino)-2-oxoethoxy)-3-((R)-3-phenylpiperidine-1-carbonyl)-3,4-dihydroisoquinolin-2(1H)-yl)-3,3-dimethyl-1-oxobutan-2-yl)carbamoyl)benzo[b]thiophen-5-yl)difluoromethyl)phosphonic acid] | > 10 |  | 
3 | CC(C)(C)[C@H](NC(=O)c1cc2cc(C(F)(F)P(=O)(O)O)ccc2s1)C(=O)N1C[C@H](OCCCCCC#Cc2cccc3c2CN(C2CCC(=O)NC2=O)C3=O)C[C@H]1C(=O)N1CCC[C@H](c2ccccc2)C1 (stereo partly drawn) [Compound 602, ((2-(((2S)-1-((2S,4R)-4-((7-(2-(2,6-dioxopiperidin-3-yl)-1-oxoisoindolin-4-yl)hept-6-yn-1-yl)oxy)-2-((R)-3-phenylpiperidine-1-carbonyl)pyrrolidin-1-yl)-3,3-dimethyl-1-oxobutan-2-yl)carbamoyl)benzo[b]thiophen-5-yl)difluoromethyl)phosphonic acid] |  | > 0.3 | 
4 | Cc1ncsc1-c1ccc([C@H](C)NC(=O)[C@@H]2C[C@@H](O)CN2C(=O)[C@H](NC(=O)CNC(=O)CO[C@H]2C[C@@H](C(=O)N3CCO[C@H](c4ccccc4)C3)N(C(=O)[C@@H](NC(=O)c3cc4cc(C(F)(F)P(=O)(O)O)ccc4s3)C(C)(C)C)C2)C(C)(C)C)cc1 [Compound 425, (difluoro(2-(((S)-1-((2S,4S)-4-(2-((2-(((R)-1-((2S,4R)-4-hydroxy-2-(((S)-1-(4-(4-methylthiazol-5-yl)phenyl)ethyl)carbamoyl)pyrrolidin-1-yl)-3,3-dimethyl-1-oxobutan-2-yl)amino)-2-oxoethyl)amino)-2-oxoethoxy)-2-((R)-2-phenylmorpholine-4-carbonyl)pyrrolidin-1-yl)-3,3-dimethyl-1-oxobutan-2-yl)carbamoyl)benzo[b]thiophen-5-yl)methyl)phosphonic acid] | > 10 |  | > 10
5 | CC(C)(C)[C@H](NC(=O)c1cc2cc(C(F)(F)P(=O)(O)O)ccc2s1)C(=O)N1C[C@@H](OCC(=O)NCCCC#Cc2ccc3c(c2)C(=O)N(C2CCC(=O)NC2=O)C3=O)C[C@H]1C(=O)N1CCC[C@H](c2ccccc2)C1 (stereo partly drawn) [Compound 498, ((2-(((2S)-1-((2S,4S)-4-(2-((5-(2-(2,6-dioxopiperidin-3-yl)-1,3-dioxoisoindolin-5-yl)pent-4-yn-1-yl)amino)-2-oxoethoxy)-2-((R)-3-phenylpiperidine-1-carbonyl)pyrrolidin-1-yl)-3,3-dimethyl-1-oxobutan-2-yl)carbamoyl)benzo[b]thiophen-5-yl)difluoromethyl)phosphonic acid] | > 10 |  | 
6 | Cc1ncsc1-c1ccc([C@H](C)NC(=O)[C@@H]2C[C@@H](O)CN2C(=O)[C@@H](NC(=O)CCCCCNC(=O)CO[C@H]2C[C@@H](C(=O)N3CCO[C@H](c4ccccc4)C3)N(C(=O)[C@@H](NC(=O)c3cc4cc(C(F)(F)P(=O)(O)O)ccc4s3)C(C)(C)C)C2)C(C)(C)C)cc1 [Compound 429, (difluoro(2-(((S)-1-((2S,4S)-4-(2-((6-(((S)-1-((2S,4R)-4-hydroxy-2-(((S)-1-(4-(4-methylthiazol-5-yl)phenyl)ethyl)carbamoyl)pyrrolidin-1-yl)-3,3-dimethyl-1-oxobutan-2-yl)amino)-6-oxohexyl)amino)-2-oxoethoxy)-2-((R)-2-phenylmorpholine-4-carbonyl)pyrrolidin-1-yl)-3,3-dimethyl-1-oxobutan-2-yl)carbamoyl)benzo[b]thiophen-5-yl)methyl)phosphonic acid] | > 10 |  | > 10
7 | Cc1ncsc1-c1ccc([C@H](C)NC(=O)[C@@H]2C[C@@H](O)CN2C(=O)[C@@H](NC(=O)CCCCCNC(=O)CC(=O)N2CCN(C(=O)[C@@H](NC(=O)c3cc4cc(C(F)(F)P(=O)(O)O)ccc4s3)C(C)(C)C)[C@H](C(=O)N3CCC[C@H](c4ccccc4)C3)C2)C(C)(C)C)cc1 [Compound 456, (difluoro(2-(((S)-1-((S)-4-(3-((6-(((S)-1-((2,4R)-4-hydroxy-2-(((S)-1-(4-(4-methylthiazol-5-yl)phenyl)ethyl)carbamoyl)pyrrolidin-1-yl)-3,3-dimethyl-1-oxobutan-2-yl)amino)-6-oxohexyl)amino)-3-oxopropanoyl)-2-((R)-3-phenylpiperidine-1-carbonyl)piperazin-1-yl)-3,3-dimethyl-1-oxobutan-2-yl)carbamoyl)benzo[b]thiophen-5-yl)methyl)phosphonic acid] | > 10 |  | > 10
8 | CC(C)(C)[C@H](NC(=O)c1cc2cc(C(F)(F)P(=O)(O)O)ccc2s1)C(=O)N1CCN(C(=O)CC(=O)NCCCCCCCCC#Cc2cccc3c2C(=O)N(C2CCC(=O)NC2=O)C3=O)C[C@H]1C(=O)N1CCO[C@H](c2ccccc2)C1 (stereo partly drawn) [Compound 517, ((2-(((2S)-1-((2S)-4-(3-((10-(2-(2,6-dioxopiperidin-3-yl)-1,3-dioxoisoindolin-4-yl)dec-9-yn-1-yl)amino)-3-oxopropanoyl)-2-((R)-2-phenylmorpholine-4-carbonyl)piperazin-1-yl)-3,3-dimethyl-1-oxobutan-2-yl)carbamoyl)benzo[b]thiophen-5-yl)difluoromethyl)phosphonic acid] | > 10 |  | 
9 | CC(C)(C)[C@H](NC(=O)c1cc2cc(C(F)(F)P(=O)(O)O)ccc2s1)C(=O)N1C[C@@H](OCCCCCCC#Cc2cccc3c2CN(C2CCC(=O)NC2=O)C3=O)C[C@H]1C(=O)N1CCO[C@H](c2ccccc2)C1 (stereo partly drawn) [Compound 587, ((2-(((2S)-1-((2S,4S)-4-((8-(2-(2,6-dioxopiperidin-3-yl)-1-oxoisoindolin-4-yl)oct-7-yn-1-yl)oxy)-2-((R)-2-phenylmorpholine-4-carbonyl)pyrrolidin-1-yl)-3,3-dimethyl-1-oxobutan-2-yl)carbamoyl)benzo[b]thiophen-5-yl)difluoromethyl)phosphonic acid] | < 0.1 |  | 0.1 to 1
10 | Cc1cc([C@H](C(=O)N2C[C@H](O)C[C@H]2C(=O)N[C@@H](CC(=O)NCCCCCCNC(=O)CO[C@@H]2C[C@@H](C(=O)N(C)c3ccc(Br)cc3)N(C(=O)[C@@H](NC(=O)c3cc4cc(C(F)(F)P(=O)(O)O)ccc4s3)C(C)(C)C)C2)c2ccc(-c3scnc3C)cc2)C(C)C)on1 [Compound 422, ((2-(((S)-1-((2S,4R)-2-((4-bromophenyl)(methyl)carbamoyl)-4-(2-((6-((S)-3-((2S,4R)-4-hydroxy-1-((R)-3-methyl-2-(3-methylisoxazol-5-yl)butanoyl)pyrrolidine-2-carboxamido)-3-(4-(4-methylthiazol-5-yl)phenyl)propanamido)hexyl)amino)-2-oxoethoxy)pyrrolidin-1-yl)-3,3-dimethyl-1-oxobutan-2-yl)carbamoyl)benzo[b]thiophen-5-yl)difluoromethyl)phosphonic acid] | > 10 |  | 
11 | Cc1ncsc1-c1ccc([C@H](C)NC(=O)[C@@H]2C[C@@H](O)CN2C(=O)[C@@H](NC(=O)CCCCCNC(=O)CC(=O)N2CCN(C(=O)[C@@H](NC(=O)c3cc4cc(C(F)(F)P(=O)(O)O)ccc4s3)C(C)(C)C)[C@H](C(=O)N3CCO[C@H](c4ccccc4)C3)C2)C(C)(C)C)cc1 [Compound 447, (difluoro(2-(((S)-1-((S)-4-(3-((6-(((S)-1-((2S,4R)-4-hydroxy-2-(((S)-1-(4-(4-methylthiazol-5-yl)phenyl)ethyl)carbamoyl)pyrrolidin-1-yl)-3,3-dimethyl-1-oxobutan-2-yl)amino)-6-oxohexyl)amino)-3-oxopropanoyl)-2-((R)-2-phenylmorpholine-4-carbonyl)piperazin-1-yl)-3,3-dimethyl-1-oxobutan-2-yl)carbamoyl)benzo[b]thiophen-5-yl)methyl)phosphonic acid] | > 10 |  | > 10
